Key:
[1] = test system: amphetamine-induced rats; test: Amphetamine-induced locomotor activity and stereotypic behaviour, open field arena (Example 2, Studies 1, 2, 4); format: in vivo, rat; details: for normalised total stereotypic behaviour, compared to vehicle-amphetamine group / total distance travelled, compared to vehicle-amphetamine group: amphetamine at t=30 min; for locomotor activity compared to the vehicle-amphetamine group (conclusion) / stereotypic behaviour compared to the vehicle-amphetamine group (conclusion): risperidone 1 mg/kg
Source text: Dopaminergic models for Tourette's syndrome use systemic or focal administration of dopamine agonists such as amphetamine. After injection with amphetamine, a test animal expresses stereotypic behaviour. In particular, involvement of a dopaminergic system implicated in Tourette's syndrome wild type mice and rats can be stimulated with amphetamine and the resulting hyperactivity and stereotypies can be reversed with dopamine antagonists such as risperidone and haloperidol (Tourette's syndrome—Animal Models for Screening, Charles River Discovery Research Services, Finland).
All animal experiments were carried out according to the National Institute of Health (NIH) guidelines for the care and use of laboratory animals, and approved by the National Animal Experiment Board, Finland. Male CD (Charles River Laboratories, Germany) at weight range of 200-250 g (165-200 g upon arrival) were used for the experiments. Animals were housed at a standard temperature (22±1° C.) and in a light-controlled environment (lights on from 7 am to 8 pm) with ad libitum access to food and water.
Locomotor activity of the rats was tested in open field arena. The open field test was performed during the rat light cycle and under a normal lighting evenly distributed to the test chambers. The paths of the rats were recorded by activity monitor (Med. Associates Inc.).
Dosing the vehicle, vehicle-amphetamine, (+)-α-DHTBZ or risperidone was done prior to LMA test. The rats were placed in the centre of the arena, and the path was recorded for 60 minutes.
(§1) Animals were grouped as follows: • Group 1: 10 rats treated with Vehicle (t=0 min) and Vehicle (t=30 min) • Group 2: 10 rats treated with Vehicle (t=0 min) and Amphetamine (t=30 min) • Group 3: 10 rats treated with (+)-α-DHTBZ 0.5 mg/kg (t=0 min) and Amphetamine (t=30 min) • Group 4: 10 rats treated with (+)-α-DHTBZ 1 mg/kg (t=0 min) and Amphetamine (t=30 min) • Group 5: 10 rats treated with (+)-α-DHTBZ 1.5 mg/kg (t=0 min) and Amphetamine (t=30 min) • Group 6: 10 rats treated with (+)-α-DHTBZ 2 mg/kg (t=0 min) and Amphetamine (t=30 min) • Group 7: 10 rats treated with risperidone 1 mg/kg (t=0 min) and Amphetamine (t=30 min)
(§2) Rats dosed with either vehicle, (+)-α-DHTBZ 0.5 mg/kg, (+)-α-DHTBZ 1 mg/kg, (+)-α-DHTBZ 1.5 mg/kg, (+)-α-DHTBZ 2 mg/kg or Risperidone 1 mg/kg were subjected to LMA testing first for 30 min and then for 60 minutes after vehicle or amphetamine challenge. Resulting locomotor activity was evaluated in 3 min bins and as a total over the testing period.
as §2, with “stereotypic” for “locomotor”
Animals were grouped as follows: • Group 1: 10 rats treated with Vehicle (t=0 min) and Vehicle (t=30 min) • Group 2: 10 rats treated with Vehicle (t=0 min) and Amphetamine (t=30 min) • Group 3: 10 rats treated with (+)-α-DHTBZ 0.1 mg/kg (t=0 min) and Amphetamine (t=30 min) • Group 4: 10 rats treated with (+)-α-DHTBZ 0.25 mg/kg (t=0 min) and Amphetamine (t=30 min) • Group 5: 10 rats treated with risperidone 1 mg/kg (t=0 min) and Amphetamine (t=30 min)
as §1, with “(+)-α-DHTBZ 1” for “(+)-α-DHTBZ 0.5”, “(+)-α-DHTBZ 1.5” for “(+)-α-DHTBZ 1”, “with Valbenazine 1” for “with (+)-α-DHTBZ 1.5”, “with Valbenazine 1.5” for “with (+)-α-DHTBZ 2”

[2] = Plasma levels of (+)-α-dihydrotetrabenazine up to 3 hours after oral dosing of human volunteers (Example 1A); format: in vivo; details: 7.5 mg oral, 0.5 h
Protocol: […] […] Blood samples were not taken from the fifth volunteer. At 60 minutes after drug administration, PET scans were initiated and these were stopped at 120 minutes after drug administration. The experiment was carried out at dosages of 7.5 mg, 15 mg and 22.5 mg.

[3] = Study 1, (+)-α-DHTBZ at all the tested doses (0.5, 1, 1.5, 2 mg/kg)

SMILES: COc1cc2c(cc1OC)[C@H]1C[C@@H](O)[C@H](CC(C)C)CN1CC2 [(+)-α-dihydrotetrabenazine, (R,R,R)-3-isobutyl-9,10-dimethyloxy-1,3,4,5,7,11b-hexahydro-2H-pyrido[2,1-a]isoquinolin-2-ol]
- normalised total stereotypic behaviour, compared to vehicle-amphetamine group ([1]; Study 1, 0.5 mg/kg): significantly different
- normalised total stereotypic behaviour, compared to vehicle-amphetamine group ([1]; Study 1, 1 mg/kg): significantly different
- normalised total stereotypic behaviour, compared to vehicle-amphetamine group ([1]; Study 1, 1.5 mg/kg): significantly different
- normalised total stereotypic behaviour, compared to vehicle-amphetamine group ([1]; Study 1, 2 mg/kg): significantly different
- locomotor activity compared to the vehicle-amphetamine group (conclusion) [1, 3]: lower locomotor activity
- stereotypic behaviour compared to the vehicle-amphetamine group (conclusion) [1, 3]: reduced stereotypic behaviour
- normalised total stereotypic behaviour, compared to vehicle-amphetamine group ([1]; Study 2, 0.1 mg/kg): significantly different
- normalised total stereotypic behaviour, compared to vehicle-amphetamine group ([1]; Study 2, 0.25 mg/kg): significantly different
- locomotor activity compared to the vehicle-amphetamine group (conclusion) ([1]; Study 2, (+)-α-DHTBZ at 0.25 mg/kg): lower locomotor activity
- stereotypic behaviour compared to the vehicle-amphetamine group (conclusion) ([1]; Study 2, (+)-α-DHTBZ at both the tested doses (0.1, 0.25 mg/kg)): reduced stereotypic behaviour
- locomotor activity compared to the vehicle-amphetamine group and the corresponding dose of Valbenazine (conclusion) ([1]; Study 4, 1 mg/kg and 1.5 mg/kg): lower locomotor activity
- normalised total stereotypic behaviour, compared to vehicle-amphetamine group ([1]; Study 4, 1 mg/kg): significantly different
- total distance travelled, compared to vehicle-amphetamine group ([1]; Study 4, 1 mg/kg): significantly different
- normalised total stereotypic behaviour, compared to vehicle-amphetamine group ([1]; Study 4, 1.5 mg/kg): significantly different
- total distance travelled, compared to vehicle-amphetamine group ([1]; Study 4, 1.5 mg/kg): significantly different
- stereotypic behaviour compared to the vehicle-amphetamine group and the corresponding dose of Valbenazine (conclusion) ([1]; Study 4, both the tested doses (1 mg/kg and 1.5 mg/kg)): reduced stereotypic behaviour
- plasma concentration of (+)-α-dihydrotetrabenazine ([2]; subject 1 (112 kg)): BLQ
- plasma concentration of (+)-α-dihydrotetrabenazine ([2]; subject 6 (68 kg)): BLQ

Source: patent US20220211678A1, “USES OF (+)-A-DIHYDROTETRABENAZINE IN METHODS OF TREATING MOVEMENT DISORDER” (ADEPTIO PHARMACEUTICALS LIMITED, priority 2017, published 2022)
